# Measurements taken from patent US10450613B2, “EGFR/NEDD9/TGF-β interactome and methods of use thereof for the identification of agents having efficacy in the treatment of hyperproliferative disorders” (Fox Chase Cancer Center, priority 2007, dated 2019).
# Assays:
# [1] = test system: EGFR, ERK1/2 and AKT phosphorylation; experiment: Western analysis of EGFR pathway after inhibitor treatment and EGF stimulation; assay type: cell-based, human
# [2] = test system: cancer cells; experiment: Drug synergy testing (Chou-Talalay CI), cell line not stated (FIG. 17B); assay type: cell-based
# Procedure: (§1) The coefficient of interaction (CI) between pharmacological inhibitors was established by the Chou-Talalay method (Chou et al., (1984) Adv Enzyme Regul 22:27). The software package CalcuSyn (BioSoft, UK) was used to automate calculations. Briefly, for each drug tested, an IC50 curve was established in each cell line, and used to select combination doses of drugs for subsequent synergy tests. 3500 cells were plated per well in 96-well plates. After 24 hours, cells were treated with serial dilutions of individual inhibitors, or combinations of two inhibitors maintained at a constant molar ratio. After 72 hours incubation, cell viability was measured using either CellTiter Blue (Promega, USA) or a WST1 assay (Roche Applied Science, Indianapolis, Ind.). The CI values for each dose and corresponding cytotoxicity were expressed as the fraction affected (Fa) and were calculated using CalcuSyn computer software and presented as Fa-CI plots. CI values <1 indicate synergy, and <0.5 strong synergy, between the two agents in producing cytotoxic effect.
# [3] = test system: A431 cells; experiment: Phosphoproteomic analysis, Proteome Profiler array of 46 signaling proteins; assay type: cell-based, human
# Procedure: For phosphoproteomic analysis, we used the Proteome Profiler™ array (R&D Systems, Minneapolis, Minn., USA) according to the manufacturer's protocol. In brief, A431 cells were grown for 24 hours in DMEM supplemented with L-glutamine and 1% FBS to 70% confluency. Cells then were either serum starved overnight or remained in the same media. Serum starved and cells incubated in 1% serum were either left untreated or incubated with IC30 concentrations of inhibitors for 3 hours. […] Serum-starved cells were subsequently stimulated with recombinant EGF (Sigma-Aldrich, USA) at 15 ng/mL for 15 minutes before lysis. For a subset of phospho-proteins, phosphorylation status was confirmed by Western blot. Quantification was done using ImageJ software.
# [4] = test system: A431 cells; experiment: Drug synergy testing (Chou-Talalay CI), viability; assay type: cell-based, human; details: 72 hours, CI <1 synergy, <0.5 strong synergy
# Procedure: as §1
# [5] = test system: HCT116 cells; experiment: Drug synergy testing (Chou-Talalay CI), viability; assay type: cell-based, human
# Procedure: as §1
# [6] = test system: HCT116 cells; experiment: Apoptosis after drug combination treatment; assay type: cell-based, human; details: HCT116, 72 hours (FIG. 17C)
# [7] = PHA-680632 alone, transient EGF stimulation
# [8] = A431, serum starved, EGF-stimulated (FIG. 19A)
structure (smiles),measurement,setting,value
CCc1cccc(CC)c1NC(=O)N1Cc2n[nH]c(NC(=O)c3ccc(N4CCN(C)CC4)cc3)c2C1 [PHA-680632],"S473-AKT phosphorylation, combination with erlotinib","[1]; 3 hrs inhibitors then EGF, vs either agent alone (FIGS. 17H, 18; HCT116)",very significantly reduced
same,"EGFR expression, autophosphorylation, and activation",[1]; [7],did not inhibit
same,ERK1/2 or AKT phosphorylation,[1]; [7],little effect
same,Synergy with cetuximab (Chou-Talalay CI),[2],synergized
same,"Phosphorylation of 46 signaling proteins, combination of erlotinib and PHA-680632","[3]; A431, 1% serum steady state, erlotinib 0.5 μM plus PHA 0.1 μM (FIG. 19B)","significant reduction in activity of STAT3, and a group of Src kinases"
same,"Phosphorylation of 46 signaling proteins, combination of erlotinib and PHA-680632",[3]; [8],specific inhibition of a subset of proteins
same,"Phosphorylation of 46 signaling proteins, single agent",[3]; [8],little effect
same,Synergy with erlotinib in reducing viability (Chou-Talalay CI),[4],synergized strongly
same,"Cell viability, combination with erlotinib",[5]; HCT116 (FIG. 17D),Dose-dependent inhibition
same,Synergy with erlotinib in reducing viability (Chou-Talalay CI),"[5]; HCT116, 72 hours, CI <1 synergy, <0.5 strong synergy",synergized strongly
same,"Frequency of apoptosis, combination with erlotinib",[6],increases apoptosis
